From patent publication US20240132485A1, “HETEROCYCLIC CULLIN RING UBIQUITIN LIGASE COMPOUNDS AND USES THEREOF” (CEMM - FORSCHUNGSZENTRUM FÜR MOLEKULARE MEDIZIN GMBH, priority 2020, published 2024)

Tests used:
[1] = system: KBM7 cells harboring a hypomorphic UBE2M mutation; experiment: KBM7 CTG EC50 assay (UBE2M knock-out); type: cell-based; settings: Homo sapiens, KBM-7; 72 h incubation, CellTiter-Glo; read-out: KBM7 CTG EC50 (UBE2M knock-out) Activity Class
How it was run: (§1)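 Wild-type KBM7 cells, or KBM7 cells with a hypomorphic UBE2M mutation that impairs Cullin-RING ligase activity, were treated for 72 h with compounds in a 10-point, 1:4 titration (0 to 20 μM). Viability was read by CellTiter-Glo 2.0 luminescence.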

[2] = biological target: T1, DDB1-CDK12/Cyclin K ternary complex (Homo sapiens, UniProt Q16531+Q9NYV4); experiment: NanoBRET EC50 assay (HaloTag_CDK12 / NanoLuc_DDB1 in HEK293T); type: cell-based; settings: for EC50 / NanoBRET EC50 Activity Class: 10-point titration from 20 μM, HEK293T; for EC50: read-out: NanoBRET EC50 Activity Class
T1 construct: expressed in transfected cells; host or cells: HEK293T wildtype cells, transient PEI transfection
Procedure: This assay measures the interaction/recruitment of CDK12/Cyclin K to DDB1, mechanistically validating the molecular glue pharmacology.
HEK293T wildtype cells are seeded 800 k cells/well (DMEM+10% FBS+1% PS) in a 6-well plate and allowed to attach for ˜7 hours followed by a transient transfection of 1.5 μg HaloTag_CDK12 Plasmid [Table 1] and 0.15 μg NanoLuc_DDB1 plasmid [Table 1] per well using PEI. Cells are incubated at 37° C., 5% CO2, harvested after 24 hours and resuspended in assay media (Opti-MEM Reduced serum media, no phenol red, 4% FBS, 1% PS). Cells are adjusted to 2.3×10^5 cells/ml and treated with HaloTag 618 Ligand at 100 nM or DMSO. 8000 cells are seeded per well in triplicates per compound in a white-walled 384-well plate, one negative control treated with DMSO instead of HaloTag 618 Ligand is seeded in triplicates and the 384-well plate is incubated at 37° C., 5% CO2 overnight. Compound stock solutions are prepared in Opti-MEM−/− (Opti-MEM I Reduced serum media, no phenol red) at 8× and used to treat the cells at a final concentration of 1× at 10 μM. Cells and compounds are incubated for 10 minutes at room temperature followed by addition of NanoBRET Nano-Glo substrate following manufacturer's protocols. The plate is shaken for 30 sec followed by immediate measurement of donor emission (NanoBRET Blue at 460 nm) and acceptor emission (BRET Deep Red at 647 nm) for 0.5 s.
The assay setup is identical to “NanoBRET fold change experimental setup”. Instead of treating cells in […] with 10 μM compound, a 10-point titration starting at 20 μM is performed with a dilution factor of 1:4, covering α range of 20000 nM-0.076 nM.

[3] = system: KBM7 cells (wild-type); experiment: KBM7 CTG EC50 assay (UBE2M wild-type); type: cell-based, human; settings: for EC50: Homo sapiens, KBM-7, 72 h incubation, CellTiter-Glo, read-out: KBM7 CTG EC50 (UBE2M wild-type) Activity Class; for Ratio UBE2M WT to KO: ratio of anti-proliferative activity in KBM7 wild-type versus UBE2M knock-out cells (fold)
How it was run: as §1

[4] = biological target: T1, DDB1-CDK12/Cyclin K ternary complex; experiment: NanoBRET fold-change assay (HaloTag_CDK12 / NanoLuc_DDB1 in HEK293T); type: cell-based; settings: 10 μM compound, 10 minutes
How it was run: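 HEK293T cells transiently co-transfected with HaloTag_CDK12 and NanoLuc_DDB1, labelled overnight with 100 nM HaloTag 618 ligand (DMSO no-ligand control), then treated with compound at 10 μM final for 10 min at room temperature. BRET read as 460 nm donor and 647 nm acceptor emission after Nano-Glo substrate; reported as fold change.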

[5] = system: CCNK; experiment: NanoLuc-CCNK degradation assay (HEK293T_Nluc_CCNK-tagged cells); type: cell-based; settings: for NanoLuc-CCNK degradation DC50 Activity Class / DC50: 4 h incubation, HEK293T_Nluc_CCNK-tagged cells; for DC50: read-out: NanoLuc-CCNK degradation DC50 Activity Class
How it was run: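 HEK293T cells with nanoluciferase knocked in at the N-terminus of endogenous CCNK (CRISPR) exposed to a 10-point titration (0 to 10 μM, 1:4) in Opti-MEM I + 4% FBS for 4 h. Nano-Glo substrate then added and luminescence read as a measure of Cyclin K abundance.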

T1 sequence (Q9NYV4 whole entry): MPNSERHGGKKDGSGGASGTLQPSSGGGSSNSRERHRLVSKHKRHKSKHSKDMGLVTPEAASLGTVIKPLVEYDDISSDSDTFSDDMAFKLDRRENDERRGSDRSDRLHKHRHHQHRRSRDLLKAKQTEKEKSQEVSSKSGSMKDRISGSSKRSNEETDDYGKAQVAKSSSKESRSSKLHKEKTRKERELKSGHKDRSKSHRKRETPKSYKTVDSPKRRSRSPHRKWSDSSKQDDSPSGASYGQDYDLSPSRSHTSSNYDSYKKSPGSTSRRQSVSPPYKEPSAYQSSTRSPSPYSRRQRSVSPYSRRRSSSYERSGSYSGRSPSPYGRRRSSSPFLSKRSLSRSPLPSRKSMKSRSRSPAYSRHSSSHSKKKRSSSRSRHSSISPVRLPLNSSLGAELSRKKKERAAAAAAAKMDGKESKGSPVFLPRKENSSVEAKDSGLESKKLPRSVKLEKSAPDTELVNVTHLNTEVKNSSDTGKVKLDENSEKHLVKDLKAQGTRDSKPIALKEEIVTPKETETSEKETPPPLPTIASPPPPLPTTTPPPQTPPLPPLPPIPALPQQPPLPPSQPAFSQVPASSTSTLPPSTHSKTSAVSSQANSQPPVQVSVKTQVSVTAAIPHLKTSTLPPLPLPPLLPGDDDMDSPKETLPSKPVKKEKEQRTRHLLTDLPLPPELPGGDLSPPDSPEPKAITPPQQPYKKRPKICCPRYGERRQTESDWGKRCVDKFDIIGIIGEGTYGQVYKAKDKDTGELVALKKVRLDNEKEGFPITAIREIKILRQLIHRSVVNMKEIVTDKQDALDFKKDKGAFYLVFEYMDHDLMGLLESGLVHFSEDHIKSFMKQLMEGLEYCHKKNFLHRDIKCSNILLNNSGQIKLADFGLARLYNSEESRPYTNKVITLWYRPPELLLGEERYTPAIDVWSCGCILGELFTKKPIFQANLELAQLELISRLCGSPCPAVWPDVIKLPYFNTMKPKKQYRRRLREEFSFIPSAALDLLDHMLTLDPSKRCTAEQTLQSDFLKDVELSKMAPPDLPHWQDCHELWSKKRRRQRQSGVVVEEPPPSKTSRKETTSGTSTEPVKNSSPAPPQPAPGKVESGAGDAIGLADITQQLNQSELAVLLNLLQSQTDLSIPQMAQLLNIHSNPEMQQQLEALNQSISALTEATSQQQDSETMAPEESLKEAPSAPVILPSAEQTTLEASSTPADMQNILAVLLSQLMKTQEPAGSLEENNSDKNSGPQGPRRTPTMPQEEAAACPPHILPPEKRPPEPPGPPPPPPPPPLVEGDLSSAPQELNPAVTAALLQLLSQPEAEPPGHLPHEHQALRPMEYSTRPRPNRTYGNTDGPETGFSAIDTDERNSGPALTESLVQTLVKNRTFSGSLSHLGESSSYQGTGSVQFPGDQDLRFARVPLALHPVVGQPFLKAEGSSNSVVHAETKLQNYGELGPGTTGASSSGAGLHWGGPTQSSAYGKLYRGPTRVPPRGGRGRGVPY
T1 sequence (Q16531 whole entry): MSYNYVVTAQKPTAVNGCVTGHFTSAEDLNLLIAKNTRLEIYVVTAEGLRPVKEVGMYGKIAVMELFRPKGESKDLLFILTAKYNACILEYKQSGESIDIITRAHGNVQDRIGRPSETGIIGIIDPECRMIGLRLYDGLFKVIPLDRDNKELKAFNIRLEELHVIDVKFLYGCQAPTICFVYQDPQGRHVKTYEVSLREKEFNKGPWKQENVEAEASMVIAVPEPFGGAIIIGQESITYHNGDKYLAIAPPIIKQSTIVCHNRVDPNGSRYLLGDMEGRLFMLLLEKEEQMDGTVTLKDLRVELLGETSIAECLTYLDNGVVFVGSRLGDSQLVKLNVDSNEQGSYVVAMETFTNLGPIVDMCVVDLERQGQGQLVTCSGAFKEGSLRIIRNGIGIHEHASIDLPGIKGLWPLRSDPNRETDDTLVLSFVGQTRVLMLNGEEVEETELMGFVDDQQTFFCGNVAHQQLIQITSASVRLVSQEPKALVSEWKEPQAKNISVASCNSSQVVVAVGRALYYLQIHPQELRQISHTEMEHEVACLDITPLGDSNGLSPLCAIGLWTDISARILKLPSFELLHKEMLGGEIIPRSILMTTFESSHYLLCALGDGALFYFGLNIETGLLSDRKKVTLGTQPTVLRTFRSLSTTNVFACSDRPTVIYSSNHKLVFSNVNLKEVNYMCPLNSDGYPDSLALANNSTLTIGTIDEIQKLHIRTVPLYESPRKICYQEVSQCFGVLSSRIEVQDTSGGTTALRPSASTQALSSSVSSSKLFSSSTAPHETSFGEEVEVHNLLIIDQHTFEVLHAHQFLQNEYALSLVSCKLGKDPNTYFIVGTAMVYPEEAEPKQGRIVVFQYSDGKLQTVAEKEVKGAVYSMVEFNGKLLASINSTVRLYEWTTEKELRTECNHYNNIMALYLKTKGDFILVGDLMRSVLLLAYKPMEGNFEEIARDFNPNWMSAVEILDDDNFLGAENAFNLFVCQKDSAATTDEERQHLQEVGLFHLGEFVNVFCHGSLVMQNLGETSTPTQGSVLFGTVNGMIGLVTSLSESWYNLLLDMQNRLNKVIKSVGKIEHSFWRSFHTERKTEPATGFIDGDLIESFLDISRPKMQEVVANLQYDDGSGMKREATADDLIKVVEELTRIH
T1 sequence (O75909 whole entry partner): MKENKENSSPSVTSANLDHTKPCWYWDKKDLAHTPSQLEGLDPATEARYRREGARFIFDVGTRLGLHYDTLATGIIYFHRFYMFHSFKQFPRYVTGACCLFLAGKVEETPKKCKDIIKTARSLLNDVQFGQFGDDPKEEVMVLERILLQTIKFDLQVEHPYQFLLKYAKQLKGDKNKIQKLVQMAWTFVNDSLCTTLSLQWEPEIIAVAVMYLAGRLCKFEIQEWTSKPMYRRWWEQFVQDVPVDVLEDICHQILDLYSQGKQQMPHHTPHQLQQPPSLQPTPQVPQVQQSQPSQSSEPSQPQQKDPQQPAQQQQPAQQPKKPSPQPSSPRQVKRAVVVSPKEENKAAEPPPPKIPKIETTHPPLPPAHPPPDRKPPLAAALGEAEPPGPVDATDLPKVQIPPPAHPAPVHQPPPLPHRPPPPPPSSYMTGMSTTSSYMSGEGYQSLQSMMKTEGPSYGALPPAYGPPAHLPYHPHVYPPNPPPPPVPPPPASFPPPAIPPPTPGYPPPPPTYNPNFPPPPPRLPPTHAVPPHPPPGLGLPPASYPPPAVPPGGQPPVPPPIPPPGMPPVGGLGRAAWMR

Row | EC50 [2] [µM] | NanoBRET fold-change Activity Class [4] | NanoLuc-CCNK degradation DC50 Activity Class [5] | activity in NanoBRET assay (ternary complex formation), in words [2] | NanoBRET EC50 Activity Class [2] | DC50 [5] [µM] | Compound | EC50 [1] [µM] | EC50 [3] [µM] | Ratio UBE2M WT to KO [3] | activity in NanoLuc CCNK degradation assay, in words [5] | activity in KBM7 cytotoxicity assay, in words [3] | dependence of cytotoxicity on UBE2M, in words ([3]; KBM7 wild-type versus UBE2M mutant)
1 | > 10 | D (1-2 fold increase) |  |  |  | > 10 | Cc1ccc2c(CC(=O)Nc3ncc(Cl)s3)coc2c1C [Example 3-3, N-(5-chlorothiazol-2-yl)-2-(6,7-dimethylbenzofuran-3-yl)acetamide] | 1 to 10 | ≤ 0.25 | 23.5 |  |  | 
2 | > 10 | B (3-4 fold increase) |  |  |  | > 10 | O=C(Nc1ncc(C(F)(F)F)s1)C1CC(=O)N(c2cc(F)ccc2F)C1 (stereo not shown) [Example 3-22, 1-(2,5-difluorophenyl)-5-oxo-N-(5-(trifluoromethyl)thiazol-2-yl)pyrrolidine-3-carboxamide] | > 10 | ≤ 0.25 | >10 |  |  | 
3 |  | A (greater than 4-fold increase) |  |  | B (0.50 μM≤EC50≤0.25 μM) | ≤ 0.1 | Cc1ccc2c(CC(=O)Nc3cc(C(C)C)[nH]n3)coc2c1C [Example 3-45, 2-(6,7-dimethylbenzofuran-3-yl)-N-(5-isopropyl-1H-pyrazol-3-yl)acetamide] | ≤ 0.25 | ≤ 0.25 | 18.6 |  |  | extremely high dependence
4 |  | A (greater than 4-fold increase) |  |  | B (0.50 μM≤EC50≤0.25 μM) | ≤ 0.1 | O=C(Nc1ncc(C(F)(F)F)s1)C1CC(=O)N(c2cccc(Cl)c2)C1 (stereo not shown) [Example 3-19, 1-(3-chlorophenyl)-5-oxo-N-(5-(trifluoromethyl)thiazol-2-yl)pyrrolidine-3-carboxamide] | ≤ 0.25 | ≤ 0.25 | 9.1 |  |  | 
5 | ≤ 0.25 | A (greater than 4-fold increase) | B (0.50 μM≤DC50<0.10 μM) |  |  |  | Cc1ccc2c(CC(=O)Nc3ccc(C4CC4)cn3)coc2c1C [Example 3-52, N-(5-cyclopropylpyridin-2-yl)-2-(6,7-dimethylbenzofuran-3-yl)acetamide] | 1 to 10 | ≤ 0.25 | 27.0 |  |  | 
6 | ≤ 0.25 | A (greater than 4-fold increase) | B (0.50 μM≤DC50<0.10 μM) |  |  |  | Cc1cc(NC(=O)Cc2coc3c(C)c(C)ccc23)n[nH]1 [Example 3-44, 2-(6,7-dimethylbenzofuran-3-yl)-N-(5-methyl-1H-pyrazol-3-yl)acetamide] | 0.25 to 0.5 | ≤ 0.25 | 34.4 |  |  | 
7 | ≤ 0.25 | A (greater than 4-fold increase) |  | exceptional activity |  | ≤ 0.1 | COc1cc(Br)cn2cc(CC(=O)Nc3ncc(C(F)(F)F)s3)nc12 [Example 3-9, 2-(6-bromo-8-methoxyimidazo[1,2-a]pyridin-2-yl)-N-(5-(trifluoromethyl)thiazol-2-yl)acetamide] | ≤ 0.25 | ≤ 0.25 | 2.0 | exceptional activity | extremely potent activity | 

The remaining lines, values behind:

Row | Compound | EC50 [2] [µM] | NanoBRET fold-change Activity Class [4] | NanoLuc-CCNK degradation DC50 Activity Class [5] | activity in NanoBRET assay (ternary complex formation), in words [2] | NanoBRET EC50 Activity Class [2] | DC50 [5] [µM] | EC50 [1] [µM] | EC50 [3] [µM] | Ratio UBE2M WT to KO [3] | activity in NanoLuc CCNK degradation assay, in words [5] | activity in KBM7 cytotoxicity assay, in words [3] | dependence of cytotoxicity on UBE2M, in words ([3]; KBM7 wild-type versus UBE2M mutant)
8 | CC(C)c1cnc(NC(=O)Cc2cn3cc(F)ccc3n2)s1 [Example 3-4, 2-(6-fluoroimidazo[1,2-a]pyridin-2-yl)-N-(5-isopropylthiazol-2-yl)acetamide] | ≤ 0.25 | A (greater than 4-fold increase) | B (0.50 μM≤DC50<0.10 μM) |  |  |  | 1 to 10 | ≤ 0.25 | 82.6 |  |  | 
9 | O=C(Cc1cn2cc(F)ccc2n1)Nc1ncc(C(F)(F)F)s1 [Example 3-5, 2-(6-fluoroimidazo[1,2-a]pyridin-2-yl)-N-(5-(trifluoromethyl)thiazol-2-yl)acetamide] |  | B (3-4 fold increase) |  | particularly exceptional | C (1.0 μM≤EC50<0.50 μM) | ≤ 0.1 | 0.25 to 0.5 | ≤ 0.25 | 142 | particularly exceptional |  | 
10 | O=C(Cc1ccc2ncccc2c1)Nc1ncc(C(F)(F)F)s1 [Example 3-14, 2-(quinolin-6-yl)-N-(5-(trifluoromethyl)thiazol-2-yl)acetamide] | ≤ 0.25 | A (greater than 4-fold increase) |  | extremely high activity |  | ≤ 0.1 | ≤ 0.25 | ≤ 0.25 |  | extremely high activity | extremely potent activity | 
11 | O=C(Cc1cn2cc(F)ccc2n1)Nc1ncc(C2CC2)s1 [Example 3-43, N-(5-cyclopropylthiazol-2-yl)-2-(6-fluoroimidazo[1,2-a]pyridin-2-yl)acetamide] | ≤ 0.25 | A (greater than 4-fold increase) |  | exceptional |  | ≤ 0.1 | ≤ 0.25 | ≤ 0.25 |  | exceptional | extremely potent activity | 
12 | Cc1cnc(NC(=O)Cc2coc3c(C)c(C)ccc23)s1 [Example 3-1, 2-(6,7-dimethylbenzofuran-3-yl)-N-(5-methylthiazol-2-yl)acetamide] | ≤ 0.25 | B (3-4 fold increase) | B (0.50 μM≤DC50<0.10 μM) |  |  |  | 0.5 to 1 | ≤ 0.25 | 25.3 |  |  | 
13 | O=C(Cc1cn2cc(F)ccc2n1)Nc1cc(C(F)(F)F)[nH]n1 [Example 3-59, 2-(6-fluoroimidazo[1,2-a]pyridin-2-yl)-N-(5-(trifluoromethyl)-1H-pyrazol-3-yl)acetamide] | > 10 | C (2-3 fold increase) |  |  |  | > 10 | > 10 | 0.25 to 0.5 | >10 |  |  | 
